Test results published in patent US6737383B1, “Herbicidal oxadiazolidines” (priority 1999, dated 2004).

Experiments:
bedstraw = test: Test B pre/postemergence bedstraw; format: in vivo, Galium aparine
Outline: (§1)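 Test chemicals in a non-phytotoxic solvent mixture with surfactant were sprayed preemergence onto planted seeds and postemergence onto plants 2 to 18 cm tall (1- to 4-leaf stage). After twelve to sixteen days in a greenhouse, injury was visually rated against untreated controls from 0 (no effect) to 10 (complete control).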

blackgrass = test: Test B pre/postemergence blackgrass; format: in vivo, Alopecurus myosuroides
Outline: as §1

surinam grass = test: Test B pre/postemergence surinam grass; format: in vivo, Brachiaria decumbens
Outline: as §1

cocklebur = test: Test B pre/postemergence cocklebur; format: in vivo, Xanthium strumarium
Outline: as §1

corn = test: Test B pre/postemergence corn; format: in vivo, Zea mays
Outline: as §1

crabgrass = test: Test B pre/postemergence crabgrass; format: in vivo, Digitaria sanguinalis
Outline: as §1

giant foxtail = test: Test B pre/postemergence giant foxtail; format: in vivo, Setaria faberii
Outline: as §1

morningglory = test: Test B pre/postemergence morningglory; format: in vivo, Ipomoea hederacea
Outline: as §1

pigweed = test: Test B pre/postemergence pigweed; format: in vivo, Amaranthus retroflexus; details: for Plant response rating, Redroot pigweed: Postemergence; for Plant response rating, Redroot pigweed / Redroot pigweed plant response rating: scale of 0 to 10 where 0 is no effect and 10 is complete control
Outline: as §1

rape = test: Test B pre/postemergence rape; format: in vivo, Brassica napus
Outline: as §1

soybean = test: Test B pre/postemergence soybean; format: in vivo, Glycine max; details: for Plant response rating, Soybean: Postemergence
Outline: as §1

sugar beet = test: Test B pre/postemergence sugar beet; format: in vivo, Beta vulgaris; details: for Plant response rating, Sugarbeets: Postemergence
Outline: as §1

velvetleaf = test: Test B pre/postemergence velvetleaf; format: in vivo, Abutilon theophrasti; details: for Plant response rating, Velvetleaf: Postemergence
Outline: as §1

wheat = test: Test B pre/postemergence wheat; format: in vivo, Triticum aestivum; details: for Plant response rating, Wheat: Postemergence
Outline: as §1

wild oat = test: Test B pre/postemergence wild oat; format: in vivo, Avena fatua; details: for Plant response rating, Wild oats: Postemergence
Outline: as §1

purple nutsedge = test: Test B pre/postemergence purple nutsedge; format: in vivo, Cyperus rotundus
Outline: as §1

[1] = Postemergence, Rate 62 g/ha, scale of 0 to 10, 0 is no effect, 10 is complete control
[2] = Postemergence, Rate 125 g/ha, scale of 0 to 10 where 0 is no effect and 10 is complete control
[3] = Postemergence, Rate 500 g/ha, scale of 0 to 10 where 0 is no effect and 10 is complete control
[4] = Preemergence, Rate 62 g/ha, scale 0 to 10 (0 no effect, 10 complete control)
[5] = Preemergence, Rate 125 g/ha, scale of 0 to 10 where 0 is no effect and 10 is complete control
[6] = Preemergence, Rate 500 g/ha, scale of 0 to 10 where 0 is no effect and 10 is complete control
[7] = Rate 250 g/ha, Postemergence, scale of 0 to 10 where 0 is no effect and 10 is complete control
[8] = Rate 125 g/ha, scale of 0 to 10 where 0 is no effect and 10 is complete control
[9] = Rate 500 g/ha, scale of 0 to 10 where 0 is no effect and 10 is complete control
[10] = Rate 250 g/ha, scale of 0 to 10 where 0 is no effect and 10 is complete control

SMILES: CC(C)N(C(=O)n1oc(=O)n(CCCCF)c1=O)c1ccccc1 [Compound 581]
- Bedstraw plant response rating (bedstraw; [1]): 0
- Plant response rating, Bedstraw (bedstraw; [2]): 8
- Plant response rating, Bedstraw (bedstraw; [3]): 9
- Bedstraw plant response rating (bedstraw; [4]): 8
- Bedstraw plant response rating (bedstraw; [5]): 9
- Bedstraw plant response rating (0 to 10 scale) (bedstraw; Preemergence, Rate 250 g/ha): 7
- Bedstraw plant response rating (bedstraw; [6]): 9
- Blackgrass plant response rating (blackgrass; [1]): 4
- Plant response rating, Blackgrass (blackgrass; [2]): 4
- Plant response rating, Blackgrass (blackgrass; [3]): 4
- Blackgrass plant response rating (blackgrass; [4]): 0
- Blackgrass plant response rating (blackgrass; [5]): 0
- Blackgrass plant response rating (0 to 10 scale) (blackgrass; Preemergence, Rate 250 g/ha): 0
- Blackgrass plant response rating (blackgrass; [6]): 7
- Plant response rating, Blackgrass (blackgrass; [7]): 4
- B. signalgrass plant response rating (surinam grass; [1]): 5
- Plant response rating, B. signalgrass (surinam grass; [2]): 5
- Plant response rating, B. signalgrass (surinam grass; [3]): 8
- B. signalgrass plant response rating (surinam grass; [4]): 0
- B. signalgrass plant response rating (surinam grass; [5]): 0
- B. signalgrass plant response rating (0 to 10 scale, 0 is no effect, 10 is complete control) (surinam grass; Preemergence, Rate 250 g/ha): 2
- B. signalgrass plant response rating (surinam grass; [6]): 9
- Plant response rating, B. signalgrass (surinam grass; [7]): 7
- Cocklebur plant response rating (cocklebur; [1]): 2
- Plant response rating, Cocklebur (cocklebur; [3]): 3
- Cocklebur plant response rating (cocklebur; [4]): 0
- Cocklebur plant response rating (cocklebur; [5]): 0
- Cocklebur plant response rating (0 to 10 scale) (cocklebur; Preemergence, Rate 250 g/ha): 0
- Cocklebur plant response rating (cocklebur; [6]): 0
- Plant response rating, Cocklebur (cocklebur; [7]): 3
- Corn plant response rating (corn; [1]): 2
- Plant response rating, Corn (corn; [2]): 4
- Plant response rating, Corn (corn; [3]): 6
- Corn plant response rating (corn; [4]): 0
- Corn plant response rating (corn; [5]): 2
- Corn plant response rating (0 to 10 scale) (corn; Preemergence, Rate 250 g/ha): 7
- Corn plant response rating (corn; [6]): 9
- Plant response rating, Corn (corn; [7]): 5
- Crabgrass plant response rating (crabgrass; [1]): 3
- Plant response rating, Crabgrass (crabgrass; [2]): 7
- Plant response rating, Crabgrass (crabgrass; [3]): 9
- Crabgrass plant response rating (crabgrass; [4]): 4
- Crabgrass plant response rating (crabgrass; [5]): 9
- Crabgrass plant response rating (0 to 10 scale) (crabgrass; Preemergence, Rate 250 g/ha): 8
- Crabgrass plant response rating (crabgrass; [6]): 9
- Plant response rating, Crabgrass (crabgrass; [7]): 7
- Giant foxtail plant response rating (giant foxtail; [1]): 7
- Plant response rating, Giant foxtail (giant foxtail; [2]): 8
- Plant response rating, Giant foxtail (giant foxtail; [3]): 9
- Giant foxtail plant response rating (giant foxtail; [4]): 4
- Giant foxtail plant response rating (giant foxtail; [5]): 10
- Giant foxtail plant response rating (0 to 10 scale) (giant foxtail; Preemergence, Rate 250 g/ha): 9
- Giant foxtail plant response rating (giant foxtail; [6]): 10
- Plant response rating, Giant foxtail (giant foxtail; [7]): 8
- Morningglory plant response rating (morningglory; [1]): 4
- Plant response rating, Morningglory (morningglory; [2]): 8
- Plant response rating, Morningglory (morningglory; [3]): 10
- Morningglory plant response rating (morningglory; [4]): 0
- Morningglory plant response rating (morningglory; [5]): 2
- Morningglory plant response rating (0 to 10 scale) (morningglory; Preemergence, Rate 250 g/ha): 4
- Morningglory plant response rating (morningglory; [6]): 6
- Plant response rating, Morningglory (morningglory; [7]): 7
- Plant response rating, Redroot pigweed (pigweed; Rate 125 g/ha): 8
- Plant response rating, Redroot pigweed (pigweed; Rate 500 g/ha): 9
- Redroot pigweed plant response rating (pigweed; Preemergence, Rate 125 g/ha): 5
- Redroot pigweed plant response rating (0 to 10 scale) (pigweed; Preemergence, Rate 250 g/ha): 9
- Redroot pigweed plant response rating (pigweed; Preemergence, Rate 500 g/ha): 10
- Plant response rating, Redroot pigweed (pigweed; Rate 250 g/ha): 8
- Rape plant response rating (rape; [1]): 0
- Plant response rating, Rape (rape; [2]): 7
- Plant response rating, Rape (rape; [3]): 7
- Rape plant response rating (rape; [4]): 0
- Rape plant response rating (rape; [5]): 0
- Rape plant response rating (0 to 10 scale) (rape; Preemergence, Rate 250 g/ha): 2
- Rape plant response rating (rape; [6]): 7
- Plant response rating, Rape (rape; [7]): 7
- Plant response rating, Soybean (soybean; [8]): 4
- Plant response rating, Soybean (soybean; [9]): 5
- Soybean plant response rating (soybean; [4]): 0
- Soybean plant response rating (soybean; [5]): 0
- Soybean plant response rating (0 to 10 scale) (soybean; Preemergence, Rate 250 g/ha): 5
- Soybean plant response rating (soybean; [6]): 7
- Plant response rating, Soybean (soybean; [10]): 4
- Plant response rating, Sugarbeets (sugar beet; [8]): 5
- Plant response rating, Sugarbeets (sugar beet; [9]): 8
- Sugarbeets plant response rating (sugar beet; [4]): 0
- Sugarbeets plant response rating (sugar beet; [5]): 0
- Sugarbeets plant response rating (0 to 10 scale) (sugar beet; Preemergence, Rate 250 g/ha): 0
- Sugarbeets plant response rating (sugar beet; [6]): 9
- Plant response rating, Sugarbeets (sugar beet; [10]): 7
- Plant response rating, Velvetleaf (velvetleaf; [8]): 4
- Plant response rating, Velvetleaf (velvetleaf; [9]): 6
- Velvetleaf plant response rating (velvetleaf; [4]): 5
- Velvetleaf plant response rating (velvetleaf; [5]): 5
- Velvetleaf plant response rating (0 to 10 scale) (velvetleaf; Preemergence, Rate 250 g/ha): 5
- Velvetleaf plant response rating (velvetleaf; [6]): 10
- Plant response rating, Velvetleaf (velvetleaf; [10]): 6
- Plant response rating, Wheat (wheat; [8]): 4
- Plant response rating, Wheat (wheat; [9]): 4
- Wheat plant response rating (wheat; [4]): 0
- Wheat plant response rating (wheat; [5]): 0
- Wheat plant response rating (0 to 10 scale) (wheat; Preemergence, Rate 250 g/ha): 2
- Wheat plant response rating (wheat; [6]): 5
- Plant response rating, Wheat (wheat; [10]): 4
- Plant response rating, Wild oats (wild oat; [8]): 5
- Plant response rating, Wild oats (wild oat; [9]): 5
- Wild oats plant response rating (wild oat; [4]): 0
- Wild oats plant response rating (wild oat; [5]): 0
- Wild oats plant response rating (0 to 10 scale) (wild oat; Preemergence, Rate 250 g/ha): 0
- Wild oats plant response rating (wild oat; [6]): 8
- Plant response rating, Wild oats (wild oat; [10]): 5
- Nutsedge plant response rating (purple nutsedge; [1]): 0
- Nutsedge plant response rating (purple nutsedge; [4]): 0
- Nutsedge plant response rating (purple nutsedge; [5]): 0
- Nutsedge plant response rating (0 to 10 scale) (purple nutsedge; Preemergence, Rate 250 g/ha): 4
- Nutsedge plant response rating (purple nutsedge; [6]): 8
